The target in test [1] is T1, PARG (Homo sapiens, UniProt Q86W56). The test is described as follows: Inhibition of PARG enzymatic assay (TR-FRET enzymatic IC50 assay). The test is classed as biochemical. The arrangement: purchased Peak Proteins. The note with it: hPARG 250 pM, biotinylated-PARylated PARP substrate 30 nM. In a few lines: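 Compound preincubated 1 h with 250 pM His-tagged hPARG, then 30 nM biotinylated PARylated hPARP1 substrate added for 10 min; buffer 50 mM Tris-HCl pH 7.4, EDTA/EGTA, 1 mM DTT, 23° C. TR-FRET read after 1 h with anti-His ULight antibody and streptavidin-europium; inhibition scaled between DMSO and no-enzyme controls.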

The test system of test [2] is HCC1806-XRCC1 KD (knock down) cells. The test is described as follows: Cellular viability assay (Cell Titer-Glo). The test is classed as cell-based. The note with it: 96 h, HCC1806-shXRCC1 cells, 4 days of incubation, read-out: PARGi cell viability. The method in brief:
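XRCC1-knockdown HCC1806 cells seeded 24 h before dosing; 9-point 1:3 dilution from 30 μM top concentration, duplicates, 4-day incubation. Viability by CellTiter-Glo luminescence, normalized to DMSO wells as % of control; curves fit with 4-parameter inhibition model.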

Test [3] has as its target T1, PARG. The experiment in a line: Inhibition of PARG cellular assay (PAR foci in HeLa cells after MMS). It counts as cell-based. The note with it: compound 1 h then MMS 1 h. The arrangement: endogenous in cells; host or cells: HeLa. The method in brief:
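HeLa cells pretreated with compound for 1 h, then given MMS for a further 1 h, fixed and immunostained for PAR polymer. High-content imaging quantified nuclear PAR foci intensity (PAR Foci IC50) and percent cells with foci signal >1.3 (PAR % positive IC50).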

SMILES strings stand for the structures.

T1 sequence (Q86W56 whole entry): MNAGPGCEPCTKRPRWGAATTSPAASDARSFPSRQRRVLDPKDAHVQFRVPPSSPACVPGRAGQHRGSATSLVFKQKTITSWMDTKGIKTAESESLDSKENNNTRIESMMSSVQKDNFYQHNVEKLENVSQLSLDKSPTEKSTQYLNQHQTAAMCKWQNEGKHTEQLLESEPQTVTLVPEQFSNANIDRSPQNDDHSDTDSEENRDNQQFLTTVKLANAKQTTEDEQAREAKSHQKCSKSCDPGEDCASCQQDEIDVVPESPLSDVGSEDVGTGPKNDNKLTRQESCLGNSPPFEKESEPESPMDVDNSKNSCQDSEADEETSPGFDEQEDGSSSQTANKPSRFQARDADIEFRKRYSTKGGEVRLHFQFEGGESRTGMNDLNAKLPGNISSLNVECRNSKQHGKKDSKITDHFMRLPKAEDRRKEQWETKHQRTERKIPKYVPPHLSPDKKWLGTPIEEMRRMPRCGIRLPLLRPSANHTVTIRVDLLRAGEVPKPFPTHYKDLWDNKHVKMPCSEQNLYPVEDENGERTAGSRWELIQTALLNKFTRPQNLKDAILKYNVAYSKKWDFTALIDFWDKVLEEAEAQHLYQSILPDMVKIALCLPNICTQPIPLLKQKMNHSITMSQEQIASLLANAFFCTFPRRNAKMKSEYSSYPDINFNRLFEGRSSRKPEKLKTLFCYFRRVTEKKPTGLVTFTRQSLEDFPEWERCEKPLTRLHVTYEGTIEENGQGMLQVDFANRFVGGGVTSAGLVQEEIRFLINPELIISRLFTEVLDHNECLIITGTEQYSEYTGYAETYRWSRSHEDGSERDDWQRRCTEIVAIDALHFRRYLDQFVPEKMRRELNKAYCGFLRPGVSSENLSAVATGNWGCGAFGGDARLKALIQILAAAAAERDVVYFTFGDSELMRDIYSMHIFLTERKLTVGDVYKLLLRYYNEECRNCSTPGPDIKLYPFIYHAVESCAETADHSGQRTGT

For the compound `CN1CC[C@H](C(=O)N2CCN(c3cc(S(=O)(=O)NC4(C#N)CC4)cc4c3cnn4-c3nnc(C(F)F)s3)CC2)C1` [Example 68, 1-{[(4-{4-[((3S)-1-methylpyrrolidin-3-yl)carbonyl]piperazinyl}-1-[5-(difluoromethyl)(1,3,4-thiadiazol-2-yl)]-1H-indazol-6-yl)sulfonyl]amino}cyclopropanecarbonitrile], the IC50 on PARG [1] is no more than 0.1 µM; in test [2], 1 to 10 µM; against PARG [3], 1 to 10 µM.
As for `Cn1ccnc1N1CCN(c2cc(S(=O)(=O)NC3(C#N)CC3)cc3c2cnn3-c2nnc(C(F)F)s2)CC1` [Example 69, 1-[({1-[5-(difluoromethyl)(1,3,4-thiadiazol-2-yl)]-4-[4-(1-methylimidazol-2-yl)piperazinyl]-1H-indazol-6-yl}sulfonyl)amino]cyclopropanecarbonitrile], the IC50 against PARG [1] was no more than 0.1 µM; in test [2], less than 1 µM; against PARG [3] it was no more than 0.1 µM.
Consider `CCCN(C)C(=O)N1CCN(c2cc(S(=O)(=O)NC3(C#N)CC3)cc3c2cnn3-c2nnc(C(F)F)s2)CC1` [Example 77, [4-(1-[5-(difluoromethyl)(1,3,4-thiadiazol-2-yl)]-6-{[(cyanocyclopropyl)amino]sulfonyl}(1H-indazol-4-yl))piperazinyl]-N-methyl-N-propylcarboxamide], for which the IC50 against PARG [1] is no more than 0.1 µM; in test [2], less than 1 µM; on PARG [3], no more than 0.1 µM.
For the compound `Cc1cccnc1N1CCN(c2cc(S(=O)(=O)NC3(C#N)CC3)cc3c2cnn3-c2nnc(C(F)F)s2)CC1` [Example 79, 1-[({1-[5-(difluoromethyl)(1,3,4-thiadiazol-2-yl)]-4-[4-(3-methyl(2-pyridyl))-piperazinyl]-1H-indazol-6-yl}sulfonyl)amino]cyclopropanecarbonitrile], the IC50 against PARG [1] is 0.3 to 1 µM; in test [2], 1 to 10 µM; on PARG [3] it was 0.1 to 0.3 µM.
Turning to `N#CC1(NS(=O)(=O)c2cc(N3CCN(C(=O)C4CC4)CC3)c3cnn(-c4nnc(C(F)F)s4)c3c2)CC1` [Example 80, 1-[({1-[5-(difluoromethyl)(1,3,4-thiadiazol-2-yl)]-4-[4-(cyclopropylcarbonyl)piperazinyl]-1H-indazol-6-yl}sulfonyl)amino]cyclopropanecarbonitrile], the IC50 at PARG [1] is no more than 0.1 µM; in test [2] it was 1 to 10 µM; at PARG [3] it was no more than 0.1 µM.
With `CC(C)C(=O)N1CCN(c2cc(S(=O)(=O)NC3(C#N)CC3)cc3c2cnn3-c2nnc(C(F)F)s2)C[C@H]1C` [Example 82, 1-[({4-[(3R)-3-methyl-4-(2-methylpropanoyl)piperazinyl]-1-[5-(difluoromethyl) (1,3,4-thiadiazol-2-yl)]-1H-indazol-6-yl}sulfonyl)amino]cyclopropanecarbonitrile], the figures for the IC50 (against PARG [1]; in test [2]; on PARG [3]) were no more than 0.1 µM, less than 1 µM and no more than 0.1 µM, respectively.
On to `C[C@H]1CN(c2cc(S(=O)(=O)NC3(C#N)CC3)cc3c2cnn3-c2nnc(C(F)F)s2)CCN1C(=O)N(C)C` [Example 83, [(2S)-4-(1-[5-(difluoromethyl)(1,3,4-thiadiazol-2-yl)]-6-{[(cyanocyclopropyl)amino]sulfonyl}(1H-indazol-4-yl))-2-methylpiperazinyl]-N,N-dimethylcarboxamide], for which the IC50 against PARG [1] was no more than 0.1 µM; in test [2], less than 1 µM; against PARG [3], no more than 0.1 µM.
On to `Cc1ccncc1N1CCN(c2cc(S(=O)(=O)NC3(C#N)CC3)cc3c2cnn3-c2nnc(C(F)F)s2)CC1` [Example 84, 1-[({1-[5-(difluoromethyl)(1,3,4-thiadiazol-2-yl)]-4-[4-(4-methyl(3-pyridyl))piperazinyl]-1H-indazol-6-yl}sulfonyl)amino]cyclopropanecarbonitrile], for which the IC50 against PARG [1] was 0.3 to 1 µM; in test [2] it was 1 to 10 µM; at PARG [3] it was 0.1 to 0.3 µM.

The values are drawn from US20220389003A1, “4-SUBSTITUTED INDOLE AND INDAZOLE SULFONAMIDO DERIVATIVES AS PARG INHIBITORS” (IDEAYA BIOSCIENCES, INC., priority 2019, published 2022).
